Experimental data published in patent US20230416205A1, “COMPOUNDS, COMPOSITIONS, AND METHODS” (Denali Therapeutics Inc, priority 2020, published 2023).
Like-named read-outs stand apart in the source and are kept apart here.

System: NLRP3
Assay: IL-1β secretion assay in PMA-differentiated, LPS/nigericin-stimulated THP-1 cells (384-well, ELISA read-out)
Format: cell-based, human
Method in brief: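 THP-1 cells differentiated with PMA (5 ng/mL, 40 h), primed in serum-free medium with 25 ng/mL LPS for 2 h, treated with compounds 1 h (0.5% DMSO), then stimulated with nigericin for 2 h at 37 °C. Supernatant IL-1β measured by ELISA; responses normalized to LPS+5 μM nigericin and LPS-only controls.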

[1] = Table 4, IL-1β secretion, LPS/nigericin-stimulated THP-1 cells, read-out: IC50
[2] = Homo sapiens, THP-1, IL-1β secretion, PMA-differentiated THP-1 cells, LPS then nigericin stimulation, ELISA read at 450 nm, read-out: Activity
[3] = Homo sapiens, THP-1, Table 4, IL-1β secretion, LPS/nigericin-stimulated THP-1 cells, read-out: IC50
[4] = IL-1β secretion, PMA-differentiated THP-1 cells, LPS then nigericin stimulation, ELISA read at 450 nm, read-out: Activity

Compound | IC50 [1] [µM] | IC50 [2] [µM] | IC50 [3] [µM] | IC50 [4] [µM]
CC1(O)CC(NC(=O)CN2C[C@@]3(C[C@@H]3F)c3cc(C(F)(F)F)ccc3C2=O)C1 (single isomer, unassigned) [Example 327, N-(3-cis-hydroxy-3-methylcyclobutyl)-2-[(2′s,4r)-2′-fluoro-1-oxo-6-(trifluoromethyl)spiro[3H-isoquinoline-4,1′-cyclopropane]-2-yl]acetamide] | > 1 |  |  | 
CC(C)(O)C1CC(NC(=O)CN2CC3(CC3)c3cc(Br)ccc3C2=O)C1 (centres unmarked) [Example 50, 2-(6-bromo-1-oxospiro[3H-isoquinoline-4,1′-cyclopropane]-2-yl)-N-[3-(2-hydroxypropan-2-yl)cyclobutyl]acetamide] |  | < 10 | 6.44 | 
O=C(CN1CC2(CC2)c2cc(Br)ccc2C1=O)Nc1nc2ccc(Cl)cn2n1 [Example 264, 2-(6-bromo-1-oxospiro[3H-isoquinoline-4,1′-cyclopropane]-2-yl)-N-(6-chloro-[1,2,4]triazolo[1,5-a]pyridin-2-yl)acetamide] |  | < 10 | 0.312 | 
O=C(CN1CC2(CC2(F)F)c2c(ccc(C3CC3)c2F)C1=O)Nc1ncc(F)cn1 (centres unmarked) [Example 322, N-(5-fluoropyrimidin-2-yl)-2-[6-cyclopropyl-1′,1′,5-trifluoro-1-oxospiro[3H-isoquinoline-4,2′-cyclopropane]-2-yl]acetamide] |  |  | 0.038 | 
O=C(CN1C[C@]2(C[C@H]2F)c2cc(C3CC3)ccc2C1=O)Nc1ncc(Cl)cn1 [Example 232] |  | < 10 | 0.028 | 
CCN1CC(NC(=O)CN2CC3(CC3)c3cc(Br)ccc3C2=O)CCC1=O (centres unmarked) [Example 62, 2-(6-bromo-1-oxo-spiro[3H-isoquinoline-4,1′-cyclopropane]-2-yl)-N-(1-ethyl-6-oxo-3-piperidyl)acetamide] |  | 10 to 15 | 12.1 | 
O=C(CN1C[C@@]2(C[C@@H]2F)c2c(ccc(C3CC3)c2F)C1=O)Nc1ncc(Cl)cn1 (single isomer, unassigned) [Example 229, 2-[(2′s,4r)-6-cyclopropyl-2′,5-difluoro-1-oxospiro[3H-isoquinoline-4,1′-cyclopropane]-2-yl]-N-(5-chloropyrimidin-2-yl)acetamide] |  | < 10 | 0.032 | 
O=C(CN1CC2(CC2)c2cc(Br)ccc2C1=O)Nc1nc2cnccn2n1 [Example 260, 2-(6-bromo-1-oxospiro[3H-isoquinoline-4,1′-cyclopropane]-2-yl)-N-([1,2,4]triazolo[1,5-a]pyrazin-2-yl)acetamide] |  | < 10 | 0.205 | 
O=C(CN1CC2(CC2)c2cc(Br)ccc2C1=O)N[C@@H]1C[C@@H]2CC[C@H]1O2 [Example 16, 2-(6-bromo-1-oxospiro[3H-isoquinoline-4,1′-cyclopropane]-2-yl)-N-[(1R,2R,4S)-7-oxabicyclo[2.2.1]heptan-2-yl]acetamide] |  | < 10 | 9.83 | 
O=C(CN1CC2(CC2)c2cc(Br)ccc2C1=O)Nc1nc2cc(C(F)(F)F)ccn2n1 [Example 265, 2-(6-bromo-1-oxospiro[3H-isoquinoline-4,1′-cyclopropane]-2-yl)-N-[7-(trifluoromethyl)-[1,2,4]triazolo[1,5-a]pyridin-2-yl]acetamide] |  | < 10 | 0.335 | 
O=C(CN1CC2(CC2)c2cc(Br)ccc2C1=O)NC1CCN(CC(F)(F)F)CC1 [Example 375, 2-(6-bromo-1-oxospiro[3H-isoquinoline-4,1′-cyclopropane]-2-yl)-N-[1-(2,2,2-trifluoroethyl)piperidin-4-yl]acetamide] |  |  | 11.1 | 
O=C(CN1CC2(CC2)c2c(ccc(C3(F)CC3)c2F)C1=O)Nc1ncc(F)cn1 [Example 307, 2-[5-fluoro-6-(1-fluorocyclopropyl)-1-oxospiro[3H-isoquinoline-4,1′-cyclopropane]-2-yl]-N-(5-fluoropyrimidin-2-yl)acetamide] |  |  | 0.898 | 
O=C(CN1CC2(CC2)c2cc(Br)ccc2C1=O)Nc1ncc(Cl)cn1 [Example 4] |  | < 10 | 0.039 | 
Cn1nc(C2CC2)cc1NC(=O)CN1CC2(CC2)c2cc(Br)ccc2C1=O [Example 126, 2-(6-bromo-1-oxospiro[3H-isoquinoline-4,1′-cyclopropane]-2-yl)-N-(5-cyclopropyl-2-methylpyrazol-3-yl)acetamide] |  | > 15 | 15.4 | 
O=C(CN1CC2(CC2)c2cc(Br)ccc2C1=O)Nc1nc2ccc(F)cc2o1 [Example 267, 2-(6-bromo-1-oxospiro[3H-isoquinoline-4,1′-cyclopropane]-2-yl)-N-(6-fluoro-1,3-benzoxazol-2-yl)acetamide] |  | < 10 | 0.359 | 
O=C(CN1CC2(CC2)c2cc(Br)ccc2C1=O)NC1(c2ccccc2)CC1 [Example 161, 2-(6-bromo-1-oxospiro[3H-isoquinoline-4,1′-cyclopropane]-2-yl)-N-(1-phenylcyclopropyl)acetamide] |  | < 10 | 6.12 | 

Compound | IC50 [1] [µM] | IC50 [2] [µM] | IC50 [3] [µM] | IC50 [4] [µM]
Cn1nccc1CNC(=O)CN1CC2(CC2)c2cc(Br)ccc2C1=O [Example 124, 2-(6-bromo-1-oxospiro[3H-isoquinoline-4,1′-cyclopropane]-2-yl)-N-[(2-methylpyrazol-3-yl)methyl]acetamide] |  | > 15 | 27.7 | 
O=C(CN1CC(C(F)(F)F)c2cc(Br)ccc2C1=O)Nc1ncc(F)cn1 (single isomer, unassigned) [Example 300, 2-[6-bromo-1-oxo-4-(trifluoromethyl)-3,4-dihydroisoquinolin-2-yl]-N-(5-fluoropyrimidin-2-yl)acetamide] | 3.43 |  |  | < 10
Cn1ccnc(NC(=O)CN2CC3(CC3)c3cc(Br)ccc3C2=O)c1=O [Example 348, 2-(6-bromo-1-oxospiro[3H-isoquinoline-4,1′-cyclopropane]-2-yl)-N-(4-methyl-3-oxopyrazin-2-yl)acetamide] |  |  | 1.32 | 
O=C(CN1CC2(CC2)c2cc(Br)ccc2C1=O)Nc1cc2ccccn2n1 [Example 383] |  |  | 1.23 | 
O=C(CN1C[C@]2(C[C@H]2F)c2cc(I)ccc2C1=O)Nc1ncc(F)cn1 [Example 246] |  | < 10 | 0.006 | 
CN1CCC(NC(=O)CN2CC3(CC3)c3cc(Br)ccc3C2=O)C1=O (centres unmarked) [Example 347, 2-(6-bromo-1-oxospiro[3H-isoquinoline-4,1′-cyclopropane]-2-yl)-N-(1-methyl-2-oxopyrrolidin-3-yl)acetamide] |  |  | 21.5 | 
O=C(CN1CC2(CC2)c2cc(C(F)(F)F)cc(Cl)c2C1=O)Nc1ncc(F)cn1 [Example 354, 2-[8-chloro-1-oxo-6-(trifluoromethyl)spiro[3H-isoquinoline-4,1′-cyclopropane]-2-yl]-N-(5-fluoropyrimidin-2-yl)acetamide] |  |  | 24 | 
O=C(CN1CC2(CC2)c2cc(Br)ccc2C1=O)Nc1cc(C2CC2)n[nH]1 [Example 168, 2-(6-bromo-1-oxospiro[3H-isoquinoline-4,1′-cyclopropane]-2-yl)-N-(3-cyclopropyl-1H-pyrazol-5-yl)acetamide] |  | < 10 | 2.83 | 
O=C(CN1CC2(CC2)c2cc(Br)ccc2C1=O)Nc1nc2cc(Cl)ccn2n1 [Example 261, 2-(6-bromo-1-oxospiro[3H-isoquinoline-4,1′-cyclopropane]-2-yl)-N-(7-chloro-[1,2,4]triazolo[1,5-a]pyridin-2-yl)acetamide] |  | < 10 | 0.224 | 
O=C(CN1C[C@@]2(C[C@@H]2F)c2cc(C(F)(F)F)ccc2C1=O)Nc1ncc(F)cn1 (single isomer, unassigned) [Example 234, 2-[(2′s,4r)-2′-fluoro-1-oxo-6-(trifluoromethyl)spiro[3H-isoquinoline-4,1′-cyclopropane]-2-yl]-N-(5-fluoropyrimidin-2-yl)acetamide] | 0.078 | < 10 |  | 
CN1CC(NC(=O)CN2CC3(CC3)c3cc(Br)ccc3C2=O)CCC1=O (centres unmarked) [Example 21, 2-(6-bromo-1-oxo-spiro[3H-isoquinoline-4,1′-cyclopropane]-2-yl)-N-(1-methyl-6-oxo-3-piperidyl)acetamide] |  | < 10 | 6.1 | 
N#Cc1ccnc(NC(=O)CN2CC3(CC3)c3cc(Br)ccc3C2=O)n1 [Example 107, 2-(6-bromo-1-oxospiro[3H-isoquinoline-4,1′-cyclopropane]-2-yl)-N-(4-cyanopyrimidin-2-yl)acetamide] |  | < 10 | 2.82 | 
Cc1cnc(NC(=O)CN2CC3(CC3)c3cc(Br)ccc3C2=O)nc1C [Example 217, 2-(6-bromo-1-oxospiro[3H-isoquinoline-4,1′-cyclopropane]-2-yl)-N-(4,5-dimethylpyrimidin-2-yl)acetamide] |  | < 10 | 0.862 | 
O=C(CN1CC(C(F)(F)F)c2c(ccc(Br)c2F)C1=O)Nc1ncc(F)cn1 (single isomer, unassigned) [Example 298, 2-[6-bromo-5-fluoro-1-oxo-4-(trifluoromethyl)-3,4-dihydroisoquinolin-2-yl]-N-(5-fluoropyrimidin-2-yl)acetamide] | 0.367 |  |  | < 10
O=C(CN1CC2(CC2)c2cc(Br)ccc2C1=O)NC1CCc2cn[nH]c2C1 (centres unmarked) [Example 45, 2-(6-bromo-1-oxospiro[3H-isoquinoline-4,1′-cyclopropane]-2-yl)-N-(4,5,6,7-tetrahydro-1H-indazol-6-yl)acetamide] |  | < 10 | 6.25 | 
N#Cc1cnc(NC(=O)CN2C[C@@]3(C[C@@H]3F)c3c(ccc(C4CC4)c3F)C2=O)nc1 [Example 230, 2-[(2′s,4r)-6-cyclopropyl-2′,5-difluoro-1-oxospiro[3H-isoquinoline-4,1′-cyclopropane]-2-yl]-N-(5-cyanopyrimidin-2-yl)acetamide] |  | < 10 | 0.051 | 
